Data reported in patent US5066674A, “Carbamate inhibitors of cholesterol esterase and their use as hypolipidemic and hypocaloric agents” (University of Iowa Research Foundation, priority 1990, dated 1991).

Molecular target: Pancreatic cholesterol esterase (CEase)
Experiment: CEase-catalyzed hydrolysis of p-nitrophenylbutyrate (PNPB), irreversible inhibition timecourse
Type: biochemical
Conditions: for Second-order inhibition rate constant ki/Ki: PNPB substrate, 25.0 °C, pH 7.3, 0.1M sodium phosphate, 0.1N NaCl, 1 mM Triton X100; for t1/2, half-life of irreversible inhibition: in presence of 10^-5 M inhibitor, calculated t1/2 = ln(2)/(ki[I])
Protocol: The CEase-catalyzed hydrolysis of the water-soluble substrate p-nitrophenylbutyrate (PNPB) is the reaction that was routinely used to characterize irreversible inhibitors. The reaction is followed at 25.0±0.1° C. and pH 7.3 in 0.1M sodium phosphate buffer that contains 0.1N NaCl, 1 mM Triton X100, and the appropriate concentrations of CEase and PNPB. Characterization of inhibitors occurs in three steps: First, inhibitor is added to CEase and the percent activity of the enzyme is measured as a function of time. A corresponding control (contains no inhibitor) measures the 100% activity level. Secondly, the pseudo-first order inhibition rate constant is calculated from the activity versus time data.
%A=(%AO -%Ainf)e^-kt +%Ainf (1)
The pseudofirst order inhibition rate constant is plotted versus [I]. If the plot is linear, the second-order inhibition rate constant, ki /Ki, is the slope of a linear-leastsquares fit of the plot. And, thirdly, if plot is nonlinear and hyperbolic, the following inhibition mechanism is indicated: [drawing 5] In this mechanism, the inhibitor first forms a reversible, noncovalent complex, EI, with the enzyme. An enzymic nucleophile, presumably the active site serine (cf. Scheme I) then attacks the carbonyl carbon of the carbamate functionality of the inhibitor, with subsequent expulsion of the aromatic leaving group. For the above mechanism, the dependence of k on [I] is described by the following equation: [formula] […] From this fit the maximum first-order inhibition rate constant (ki) and the dissociation constant of EI (Ki) were determined, and consequently ki /Ki could be calculated.

| SMILES | Second-order inhibition rate constant ki/Ki [M⁻¹ s⁻¹] | Irreversible inhibition of CEase (statement in words) (comparison of second-order inhibition rate constants of Table I) | t1/2, half-life of irreversible inhibition [min] |
| --- | --- | --- | --- |
| CCCCCCCCNC(=O)Oc1ccc2ccccc2c1 [2-Naphthyl n-Octyl Carbamate] | 1350 | most potent irreversible carbamate inhibitor of CEase | 0.86 |
| CCCCNC(=O)Oc1ccc(NC(C)=O)cc1 [p-Acetamidophenyl n-Butyl Carbamate] | 40 |  | 29 |
| CCCCCCNC(=O)Oc1ccc(NC(C)=O)cc1 [p-Acetamidophenyl n-Hexyl Carbamate] | 493 |  | 2.3 |
| CCCCCCCCNC(=O)Oc1ccc(NC(C)=O)cc1 [p-Acetamidophenyl n-Octyl Carbamate] | 100 |  | 11.6 |
| CCCCCNC(=O)Oc1ccc(NC(C)=O)cc1 [p-Acetamidophenyl n-Pentyl Carbamate] | 100 |  | 11.6 |
